The experiment addresses T1, CSNK1G1 (CK1 gamma 1) (Homo sapiens, UniProt Q9HCP0).
T1 construct: purchased Thermo Fisher Scientific (Life Technologies) SelectScreen
Briefly: SelectScreen Z'LYTE. The experiment is classed as biochemical. The procedure, abridged:
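NU5455 was profiled across the SelectScreen Broad panel of kinase activity and binding assays. Z'LYTE reactions such as CSF1R ran at apparent Km ATP, while the Adapta CAMK1 assay used ATP listed as 10. Values are given as percent.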

SMILES strings stand for the structures.

The inhibition is the relative decrease from the control value, in per cent.

T1 sequence (Q9HCP0 whole entry): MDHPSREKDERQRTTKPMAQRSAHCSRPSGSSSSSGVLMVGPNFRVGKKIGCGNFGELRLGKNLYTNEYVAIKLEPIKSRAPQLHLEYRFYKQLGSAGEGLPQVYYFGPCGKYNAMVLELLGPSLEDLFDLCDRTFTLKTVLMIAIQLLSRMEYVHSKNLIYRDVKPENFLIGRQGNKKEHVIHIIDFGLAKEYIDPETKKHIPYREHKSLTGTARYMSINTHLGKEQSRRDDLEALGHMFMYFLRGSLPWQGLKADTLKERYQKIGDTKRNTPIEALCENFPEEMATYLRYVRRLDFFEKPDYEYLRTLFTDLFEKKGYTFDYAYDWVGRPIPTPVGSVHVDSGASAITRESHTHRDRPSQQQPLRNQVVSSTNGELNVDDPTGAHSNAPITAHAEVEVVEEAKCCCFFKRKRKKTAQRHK

On to `CN(C(=O)CN1CCOCC1)c1ccc2sc3c(-c4cccc5c(=O)cc(N6CC7CCC(C6)O7)oc45)cccc3c2c1` [NU5455], for which the inhibition at 1 µM is -9.9%.
